Data published in paper PMC11904604, “MRM-based LC-MS method for accurate C-peptide quantitation” (Journal of Mass Spectrometry and Advances in the Clinical …, 2025).

Experiment: in vitro
Conditions: human, serum

metabolised at 48 h, 0.53 nmol/L: 2.4% | metabolised at 48 h, 2.88 nmol/L: 6.3%
SMILES: CC(C)C[C@H](NC(=O)[C@H](C)NC(=O)[C@H](CC(C)C)NC(=O)[C@@H]1CCCN1C(=O)[C@H](CCC(N)=O)NC(=O)[C@H](CC(C)C)NC(=O)[C@H](CO)NC(=O)CNC(=O)[C@H](C)NC(=O)CNC(=O)[C@@H]1CCCN1C(=O)CNC(=O)CNC(=O)CNC(=O)[C@H](CC(C)C)NC(=O)[C@H](CCC(=O)O)NC(=O)[C@@H](NC(=O)[C@H](CCC(N)=O)NC(=O)CNC(=O)[C@@H](NC(=O)[C@H](CCC(N)=O)NC(=O)[C@H](CC(C)C)NC(=O)[C@H](CC(=O)O)NC(=O)[C@H](CCC(=O)O)NC(=O)[C@H](C)NC(=O)[C@@H](N)CCC(=O)O)C(C)C)C(C)C)C(=O)N[C@@H](CCC(=O)O)C(=O)NCC(=O)N[C@@H](CO)C(=O)N[C@@H](CC(C)C)C(=O)N[C@@H](CCC(N)=O)C(=O)O [C-peptide]
